Laboratory results published in PubChem BioAssay (NCI).
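Interpolation was linear, between the two tested concentrations surrounding the appropriate level; five concentrations were tested over 48 hours in 96-well plates. TGI is the concentration that stops growth completely.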

Experiments:
Test in all cases: growth of human tumour cells (NCI), 48 h
[1] = system: 786-0 renal
[2] = system: A549 NSCLC
[3] = system: ACHN renal
[4] = system: BT-549 breast
[5] = system: CAKI-1 renal
[6] = system: CCRF-CEM leukemia
[7] = system: COLO 205 colon
[8] = system: DU-145 prostate
[9] = system: EKVX NSCLC
[10] = system: HCC-2998 colon
[11] = system: HCT-116 colon
[12] = system: HCT-15 colon
[13] = system: HL-60(TB) leukemia
[14] = system: HOP-62 NSCLC
[15] = system: HOP-92 NSCLC
[16] = system: HS 578T breast
[17] = system: HT29 colon
[18] = system: IGROV1 ovarian
[19] = system: K-562 leukemia
[20] = system: KM12 colon
[21] = system: M14 melanoma
[22] = system: MALME-3M melanoma
[23] = system: MCF7 breast
[24] = system: MDA-MB-231 breast
[25] = system: MDA-MB-435
[26] = system: MDA-N
[27] = system: MOLT-4 leukemia
[28] = system: NCI-H226 lung
[29] = system: NCI-H23 lung
[30] = system: NCI-H460 lung
[31] = system: NCI-H522 lung
[32] = system: NCI/ADR-RES ovarian
[33] = system: OVCAR-3 ovarian
[34] = system: OVCAR-4 ovarian
[35] = system: OVCAR-5 ovarian
[36] = system: OVCAR-8 ovarian
[37] = system: PC-3 prostate
[38] = system: RPMI-8226 leukemia
[39] = system: RXF 393 renal
[40] = system: SF-268 CNS
[41] = system: SF-295 CNS
[42] = system: SF-539 CNS
[43] = system: SK-MEL-2 melanoma
[44] = system: SK-MEL-28 melanoma
[45] = system: SK-MEL-5 melanoma
[46] = system: SK-OV-3 ovarian
[47] = system: SN12C renal
[48] = system: SNB-19 CNS
[49] = system: SNB-75 CNS
[50] = system: SR leukemia
[51] = system: SW-620 colon
[52] = system: T-47D breast
[53] = system: TK-10 renal
[54] = system: U251 CNS
[55] = system: UACC-257 melanoma
[56] = system: UACC-62 melanoma
[57] = system: UO-31 renal
[58] = system: A498 renal
[59] = system: LOX IMVI melanoma

## CCN(CC)CCn1c(=O)c2cccnc2n2c3c(=O)n(C)c(=O)n(C)c3nc12
[1]
  TGI: > 100 µM
[2]
  TGI: > 100 µM
[3]
  TGI: > 100 µM
[4]
  TGI: > 100 µM
[5]
  TGI: > 100 µM
[6]
  TGI: > 100 µM
[7]
  TGI: > 100 µM
[8]
  TGI: > 100 µM
[9]
  TGI: > 100 µM
[10]
  TGI: > 100 µM
[11]
  TGI: > 100 µM
[12]
  TGI: 27.3 µM
[13]
  TGI: > 100 µM
[14]
  TGI: > 100 µM
[15]
  TGI: > 100 µM
[16]
  TGI: > 100 µM
[17]
  TGI: > 100 µM
[18]
  TGI: > 100 µM
[19]
  TGI: > 100 µM
[20]
  TGI: > 100 µM
[21]
  TGI: > 100 µM
[22]
  TGI: > 100 µM
[23]
  TGI: > 100 µM
[24]
  TGI: > 100 µM
[25]
  TGI: > 100 µM
[26]
  TGI: > 100 µM
[27]
  TGI: > 100 µM
[28]
  TGI: > 100 µM
[29]
  TGI: > 100 µM
[30]
  TGI: > 100 µM
[31]
  TGI: > 100 µM
[32]
  TGI: > 100 µM
[33]
  TGI: > 100 µM
[34]
  TGI: > 100 µM
[35]
  TGI: > 100 µM
[36]
  TGI: > 100 µM
[37]
  TGI: > 100 µM
[38]
  TGI: > 100 µM
[39]
  TGI: > 100 µM
[40]
  TGI: > 100 µM
[41]
  TGI: > 100 µM
[42]
  TGI: > 100 µM
[43]
  TGI: > 100 µM
[44]
  TGI: > 100 µM
[45]
  TGI: > 100 µM
[46]
  TGI: > 100 µM
[47]
  TGI: > 100 µM
[48]
  TGI: > 100 µM
[49]
  TGI: > 100 µM
[50]
  TGI: > 100 µM
[51]
  TGI: > 100 µM
[52]
  TGI: > 100 µM
[53]
  TGI: 57.4 µM
[54]
  TGI: > 100 µM
[55]
  TGI: > 100 µM
[56]
  TGI: > 100 µM
[57]
  TGI: > 100 µM

## CSC(=S)N(C)C
[1]
  TGI: > 100 µM
[58]
  TGI: > 100 µM
[2]
  TGI: > 100 µM
[4]
  TGI: > 100 µM
[5]
  TGI: > 100 µM
[6]
  TGI: > 100 µM
[7]
  TGI: > 100 µM
[8]
  TGI: > 100 µM
[9]
  TGI: > 100 µM
[11]
  TGI: > 100 µM
[12]
  TGI: > 100 µM
[13]
  TGI: > 100 µM
[14]
  TGI: > 100 µM
[15]
  TGI: > 100 µM
[16]
  TGI: > 100 µM
[17]
  TGI: > 100 µM
[18]
  TGI: > 100 µM
[19]
  TGI: > 100 µM
[20]
  TGI: > 100 µM
[59]
  TGI: > 100 µM
[21]
  TGI: > 100 µM
[22]
  TGI: > 100 µM
[23]
  TGI: > 100 µM
[24]
  TGI: > 100 µM
[25]
  TGI: > 100 µM
[26]
  TGI: > 100 µM
[27]
  TGI: > 100 µM
[28]
  TGI: > 100 µM
[29]
  TGI: > 100 µM
[30]
  TGI: > 100 µM
[31]
  TGI: > 100 µM
[32]
  TGI: > 100 µM
[33]
  TGI: > 100 µM
[35]
  TGI: > 100 µM
[36]
  TGI: > 100 µM
[38]
  TGI: > 100 µM
[39]
  TGI: > 100 µM
[40]
  TGI: > 100 µM
[41]
  TGI: > 100 µM
[42]
  TGI: > 100 µM
[43]
  TGI: > 100 µM
[44]
  TGI: > 100 µM
[45]
  TGI: > 100 µM
[46]
  TGI: > 100 µM
[47]
  TGI: > 100 µM
[48]
  TGI: > 100 µM
[49]
  TGI: > 100 µM
[50]
  TGI: > 100 µM
[51]
  TGI: > 100 µM
[52]
  TGI: > 100 µM
[53]
  TGI: > 100 µM
[54]
  TGI: > 100 µM
[55]
  TGI: > 100 µM
[56]
  TGI: > 100 µM
[57]
  TGI: > 100 µM

## CCOC(=O)c1ccc(NCC#CCN2CCOCC2)cc1
[1]
  TGI: > 100 µM
[58]
  TGI: > 100 µM
[2]
  TGI: > 100 µM
[3]
  TGI: > 100 µM
[4]
  TGI: > 100 µM
[6]
  TGI: > 100 µM
[7]
  TGI: > 100 µM
[8]
  TGI: > 100 µM
[9]
  TGI: > 100 µM
[11]
  TGI: > 100 µM
[12]
  TGI: > 100 µM
[13]
  TGI: > 100 µM
[14]
  TGI: > 100 µM
[15]
  TGI: > 100 µM
[16]
  TGI: > 100 µM
[17]
  TGI: > 100 µM
[18]
  TGI: > 100 µM
[19]
  TGI: > 100 µM
[20]
  TGI: > 100 µM
[59]
  TGI: > 100 µM
[21]
  TGI: > 100 µM
[22]
  TGI: > 100 µM
[23]
  TGI: > 100 µM
[24]
  TGI: > 100 µM
[25]
  TGI: > 100 µM
[26]
  TGI: > 100 µM
[27]
  TGI: > 100 µM
[28]
  TGI: > 100 µM
[29]
  TGI: > 100 µM
[32]
  TGI: > 100 µM
[33]
  TGI: > 100 µM
[34]
  TGI: > 100 µM
[35]
  TGI: > 100 µM
[37]
  TGI: > 100 µM
[38]
  TGI: > 100 µM
[39]
  TGI: > 100 µM
[40]
  TGI: > 100 µM
[42]
  TGI: > 100 µM
[43]
  TGI: > 100 µM
[44]
  TGI: > 100 µM
[45]
  TGI: > 100 µM
[46]
  TGI: > 100 µM
[47]
  TGI: > 100 µM
[48]
  TGI: > 100 µM
[50]
  TGI: > 100 µM
[51]
  TGI: > 100 µM
[52]
  TGI: > 100 µM
[54]
  TGI: > 100 µM
[56]
  TGI: > 100 µM
[57]
  TGI: > 100 µM

## CC(C)C(C)/C=C\C(C)C1CCC2C3=CC=C4CC(O)CCC4(C)C3CCC21C (stereo not given)
[1]
  TGI: > 60.7 µM
[58]
  TGI: > 100 µM
[2]
  TGI: > 100 µM
[3]
  TGI: > 65.7 µM
[4]
  TGI: > 85.6 µM
[5]
  TGI: > 60.4 µM
[6]
  TGI: > 66.9 µM
[7]
  TGI: > 61.6 µM
[8]
  TGI: > 100 µM
[9]
  TGI: > 64.8 µM
[11]
  TGI: > 57.2 µM
[12]
  TGI: > 71.3 µM
[13]
  TGI: > 77.7 µM
[14]
  TGI: > 79.5 µM
[15]
  TGI: 70.2 µM
[16]
  TGI: > 64.2 µM
[17]
  TGI: > 55.8 µM
[18]
  TGI: > 54.3 µM
[19]
  TGI: > 100 µM
[20]
  TGI: > 100 µM
[59]
  TGI: > 57.2 µM
[21]
  TGI: > 67.7 µM
[22]
  TGI: > 50.6 µM
[23]
  TGI: > 100 µM
[24]
  TGI: > 61.3 µM
[25]
  TGI: > 83.5 µM
[26]
  TGI: > 70.5 µM
[27]
  TGI: 58.3 µM
[28]
  TGI: > 65.3 µM
[29]
  TGI: > 100 µM
[30]
  TGI: > 53.3 µM
[31]
  TGI: > 100 µM
[32]
  TGI: > 70.7 µM
[33]
  TGI: > 80.5 µM
[34]
  TGI: > 100 µM
[35]
  TGI: > 100 µM
[36]
  TGI: > 53.9 µM
[37]
  TGI: > 100 µM
[38]
  TGI: > 100 µM
[39]
  TGI: > 58.7 µM
[40]
  TGI: > 70.2 µM
[41]
  TGI: > 100 µM
[42]
  TGI: > 64 µM
[43]
  TGI: > 100 µM
[44]
  TGI: > 60.5 µM
[45]
  TGI: 62.3 µM
[46]
  TGI: > 100 µM
[47]
  TGI: > 60.2 µM
[48]
  TGI: > 100 µM
[49]
  TGI: > 73.1 µM
[50]
  TGI: > 61.8 µM
[51]
  TGI: > 72.3 µM
[52]
  TGI: > 100 µM
[53]
  TGI: > 100 µM
[54]
  TGI: > 47.7 µM
[55]
  TGI: > 100 µM
[56]
  TGI: > 66.6 µM
[57]
  TGI: > 79 µM
